Measured values as given in publication PMC10877733, “Discovery and Characterization of VU0542270, the First Selective Inhibitor of Vascular Kir6.1/SUR2B KATP Channels” (Molecular Pharmacology, 2024).

Experiments:
Kir4.1/Kir5.1 = biological target: T1, Kir4.1/Kir5.1 (Homo sapiens, UniProt P78508+Q9NPI9); test: Thallium flux selectivity assay Kir4.1/Kir5.1; type: cell-based
T1 construct: expressed in transfected cells
T1 sequence (P78508 1-379): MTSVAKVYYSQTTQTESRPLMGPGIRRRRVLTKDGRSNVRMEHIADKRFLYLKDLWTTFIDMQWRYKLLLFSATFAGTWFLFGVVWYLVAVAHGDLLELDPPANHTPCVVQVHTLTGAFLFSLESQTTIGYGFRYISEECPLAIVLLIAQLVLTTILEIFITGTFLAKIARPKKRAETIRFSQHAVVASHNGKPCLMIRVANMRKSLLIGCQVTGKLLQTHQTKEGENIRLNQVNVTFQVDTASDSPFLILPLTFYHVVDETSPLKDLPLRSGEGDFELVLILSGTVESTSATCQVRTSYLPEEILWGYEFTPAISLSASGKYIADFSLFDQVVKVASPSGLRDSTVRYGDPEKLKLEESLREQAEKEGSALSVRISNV
T1 sequence (Q9NPI9 1-418): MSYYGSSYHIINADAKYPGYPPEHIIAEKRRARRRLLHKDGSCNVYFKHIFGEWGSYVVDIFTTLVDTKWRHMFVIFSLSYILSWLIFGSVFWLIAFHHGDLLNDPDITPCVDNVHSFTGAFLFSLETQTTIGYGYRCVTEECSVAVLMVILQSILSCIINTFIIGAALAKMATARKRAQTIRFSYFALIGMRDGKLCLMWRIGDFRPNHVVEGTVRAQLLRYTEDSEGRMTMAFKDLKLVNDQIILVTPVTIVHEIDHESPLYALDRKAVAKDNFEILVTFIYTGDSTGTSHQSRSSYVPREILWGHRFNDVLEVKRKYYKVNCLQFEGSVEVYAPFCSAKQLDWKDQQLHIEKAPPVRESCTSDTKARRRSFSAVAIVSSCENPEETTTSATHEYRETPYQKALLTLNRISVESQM
Experimental: (§1) Quantitative thallium flux assays of Kir6.1/SUR2B activity were performed essentially as described previously for Kir6.2/SUR1 ([Raphemot et al., 2014]; [Kharade et al., 2019]). Stable T-Rex-HEK293-Kir6.1/SUR2B cells or transiently transfected HEK293T cells were plated in polyamine-coated, clear-bottomed, black-walled 384-well plates and were cultured (37°C/5% CO2) overnight in Dulbecco’s modified Eagle’s medium (Gibco, Carlsbad, CA, 11995-065) containing 10% FBS (2 mM Penicillin-Streptomycin). The following day, cells were washed with assay buffer (i.e., Hanks’ balanced salt solution/20 mM HEPES) and loaded for 1 hour with thallium sensor dye Brilliant Thallium (Ion Bioscience, San Marcos, TX) at room temperature. Dye-loaded cells were washed with assay buffer and transferred to a Panoptic Kinetic Imaging Plate Reader (Wavefront Bioscience, Franklin, TN). Control and test compound treatments were for 4 minutes prior to adding 0.5 mM chloride-free thallium stimulus buffer (Ion Bioscience) to initiate thallium flux. […] Selectivity assays against other Kir channels were performed essentially as described previously ([Kharade et al., 2018]; [McClenahan et al., 2022]).

[1] = Brain homogenate binding by equilibrium dialysis, mouse; type: in vitro ADME; conditions: read-out: Fu, brain (mouse)
Experimental: Determination of VU0542270 fu in […] from mouse and rat was conducted using the same methodology and procedure as described for plasma protein binding assay with the following modifications: 1) a final compound concentration of 1 μM was used, and 2) naïve rat brains were homogenized in DPBS (1:3 composition of brain:DPBS, w/w) using a Mini-Bead Beater machine to obtain brain homogenate.
The diluted fraction unbound (fu2) in brain was calculated as (analyte to IS MS peak area ratio from Trans-buffer side)/(analyte to IS MS peak area ratio from Cis-brain homogenate side). Undiluted fraction unbound for the brain was calculated using the following equation: [drawing 1]
Mean values for each species were calculated from three replicates.

Kir3.1/Kir3.4 = biological target: T2, Kir3.1/Kir3.4 (Homo sapiens, UniProt P48544+P48549); test: Thallium flux selectivity assay Kir3.1/Kir3.4; type: cell-based
T2 construct: expressed in transfected cells
T2 sequence (P48549 1-501): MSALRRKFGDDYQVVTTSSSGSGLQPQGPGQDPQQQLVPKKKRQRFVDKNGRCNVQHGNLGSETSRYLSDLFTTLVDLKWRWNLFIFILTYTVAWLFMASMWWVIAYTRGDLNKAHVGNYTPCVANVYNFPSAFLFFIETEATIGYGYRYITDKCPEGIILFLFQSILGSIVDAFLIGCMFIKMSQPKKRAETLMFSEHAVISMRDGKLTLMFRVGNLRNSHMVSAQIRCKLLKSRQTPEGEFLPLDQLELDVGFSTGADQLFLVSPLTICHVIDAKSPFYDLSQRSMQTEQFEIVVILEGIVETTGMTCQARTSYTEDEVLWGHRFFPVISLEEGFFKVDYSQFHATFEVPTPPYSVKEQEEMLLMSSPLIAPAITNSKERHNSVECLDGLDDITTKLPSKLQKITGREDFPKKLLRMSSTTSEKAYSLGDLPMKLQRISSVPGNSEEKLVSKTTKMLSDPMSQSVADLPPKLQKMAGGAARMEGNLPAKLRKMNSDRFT
T2 sequence (P48544 1-419): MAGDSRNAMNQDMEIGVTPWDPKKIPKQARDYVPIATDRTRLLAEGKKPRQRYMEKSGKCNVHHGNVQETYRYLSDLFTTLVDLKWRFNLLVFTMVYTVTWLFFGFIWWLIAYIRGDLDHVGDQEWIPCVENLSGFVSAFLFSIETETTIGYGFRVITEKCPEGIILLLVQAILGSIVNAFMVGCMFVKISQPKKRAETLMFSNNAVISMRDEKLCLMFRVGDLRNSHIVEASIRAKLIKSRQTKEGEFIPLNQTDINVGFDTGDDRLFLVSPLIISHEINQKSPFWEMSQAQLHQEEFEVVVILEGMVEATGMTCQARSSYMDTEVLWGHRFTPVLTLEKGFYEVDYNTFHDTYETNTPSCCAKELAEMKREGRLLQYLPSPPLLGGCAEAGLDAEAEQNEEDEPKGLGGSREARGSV
Experimental: as §1

IC50 (Kir4.1/Kir5.1): > 30 µM | fraction unbound at 6 h, 1 µM [1]: 0.02 | IC50 (Kir3.1/Kir3.4): > 30 µM
SMILES: Cc1nc(-c2cccs2)sc1CNC(=O)Nc1cccs1 [VU0542270]
